Measurements: US6040293A, “Clavanins” (priority 1997, dated 2000)
Starred links: 1 amine or outer side, 2 acyl side, 3 side chain; linkers in the order of their positions; H or OH if unused. Non-standard residues stand in square brackets, D forms with d. No end group written: not given here. Tyr(Me) = O-methyl tyrosine, COc1ccc(C[C@H](N[*:1])C(=O)[*:2])cc1

Tests used:
Assay type in all cases: cell-based
[1] = test system: L. monocytogenes EGD; assay: radial diffusion assay; settings: for potency relative to Clavanins A and B: L. monocytogenes Strain EGD, radial diffusion (FIG. 5)
Protocol: (§1) In more detail, the filtrates (≈3.5 mg of protein by BCA) were concentrated to 2 ml by vacuum centrifugation in a Speed Vac Concentrator (Savant Instruments, Hicksville, N.Y.). Gel permeation chromatography was performed on a 1.2×65 cm BioGel P-10 gel permeation column with 5% acetic acid. Preparative continuous acid-urea PAGE electrophoresis was performed as described by Harwig, S. S. L. et al., Anal Biochem (1993) 208:382. Active fractions were pooled and purified by RP-HPLC a 4.6×250 mm Vydac C18 column, using various linear gradients of acetonitrile in 0.1% trifluoroacetic acid (TFA) or 0.13% heptafluorobutyric acid (HFBA). Throughout this multistep procedure, fractions were lyophilized, concentrated and tested for antimicrobial activity against Listeria monocytogenes strain EGD by a radial diffusion technique described in Lehrer, R. I. et al., J Immunol Methods (1991) 137:167. In these assays, the underlay gels contained 9 mM sodium phosphate and 1 mM sodium citrate buffer, 0.30 mg/ml of trypticase soy broth powder (BBL, Cockeysville, Md.) and 1% agarose at a final pH of 6.5.
(§2) In addition to Cecropin P1 and Magainin 1, the activity of Clavanin A(K) was also tested. Clavanin A(K) is identical to Clavanin A except that all of the histidine residues are replaced by lysine. […] The data are provided as minimal bacteriocidal concentrations expressed in μg/ml which are the X-intercepts of radial diffusion assays performed at pH 6.5 in an underlay that contained 10 mM buffer (9:1 citrate:phosphate), 1% agarose and 0.3 mg trypticase soy powder/ml.
The effect of pH on antimicrobial activity against several organisms was tested in a pH range wherein histidine becomes comparably charged to lysine. FIGS. 6-8 show the results for native or synthetic Clavanin A and synthetic Clavanin A(K) using defensin NP-2 as a control, with respect to L. monocytogenes, E. coli, and C. albicans respectively. The radial diffusion assays were conducted as described in Examples 1 and 3 above.

[2] = test system: E. coli ML-35P; assay: radial diffusion assay; settings: radial diffusion (FIG. 5)
Protocol: as §1, §2

[3] = test system: P. aeruginosa; assay: standard underlay assay; set-up: dose or concentration left out as unconfirmed; settings: pH 7.4
Protocol: as §1
[…] The known antimicrobials cecropin A, cecropin B, and cecropin P1 were used as controls.
The standard underlay assay was again conducted supplying both E(3-23) and PG-1 to the underlay. […]

[4] = test system: S. aureus
Protocol: as §1
(§3) Clavanin E(2-23) was tested in the standard underlay assay described in Example 1 herein wherein the underlay contained 10 mM sodium phosphate buffer, pH 7.4 and 1:100 trypticase soy broth with and without 200 mM NaCl. The known antimicrobials cecropin A, cecropin B, and cecropin P1 were used as controls.
(§4) The standard underlay assay was again conducted supplying both E(3-23) and PG-1 to the underlay. In these assays, the underlay contained in addition to 1% agarose, 10 mM sodium phosphate buffer, pH 7.4, 1:100 trypticase soy broth and 200 mM NaCl. The underlays contain PG-1 alone, E(3-23) alone, or combinations of E(3-23) and PG-1.
(§5) Finally, the activity of Clavanins A and E as well as E(3-23) and E(6-23) was tested against various target organisms at two pHs with and without salt.

[5] = test system: Burkaholderia cepacia
Protocol: as §1, §3, §4

[6] = test system: P. aeruginosa; assay: minimal bacteriocidal concentrations under various conditions; set-up: unit not given here; settings: pH 5.5
Protocol: (§6) The Tables below show the minimal bacteriocidal concentrations of PG-1, histatin 5, and Clavanin E(3-23) against various organisms under various conditions. E(3-23) was active over a broad pH range and, unlike hisatin 5, it retained activity in the presence of physiological sodium chloride concentrations.
(§7) Low salt conditions (10 mM phosphate)
(§8) High salt conditions (10 mM phosphate+100 mM NaCl)

[7] = test system: E. coli; assay: as above; set-up: unit not given here; settings: pH 5.5
Protocol: as §6, §7, §8

[8] = test system: C. albicans; assay: minimal bacteriocidal concentrations and activity under various conditions; settings: pH 5.5
Protocol: as §5, §6, §7, §8

[9] = test system: L. monocytogenes; assay: minimal bacteriocidal concentrations under various conditions; settings: pH 5.5
Protocol: as §6, §7, §8

[10] = test system: E. faecium; assay: radial diffusion assay; settings: X-intercept of radial diffusion assay, pH 6.5
Protocol: as §1, §2

[11] = test system: E. coli, L. monocytogenes, P. aeruginosa, S. areus and C. albicans; assay: activity against various target organisms at two pHs with and without salt; settings: pH 5.5, 200 mM sodium chloride; most organisms (FIG. 13B)
Protocol: as §5

[12] = high salt (10 mM phosphate+100 mM NaCl)

VFHLL GKIIH HVGNF VY' GFS HVF* [Clavanin C, Y' is o-methyl tyrosine]
potency relative to Clavanins A and B [1]: 3-5 fold
potency relative to Clavanins A and B [2]: 3-5 fold

AFKLL GRIIH HVGNF VY' GFS HVF* (AFKLLGRIIHHVGNFV[Tyr(Me)]GFSHVF-NH2; also: C-terminal modification (*)) [Clavanin D, Y' is o-methyl tyrosine]
potency relative to Clavanins A and B [1]: 3-5 fold
potency relative to Clavanins A and B [2]: 3-5 fold

cecropin A (KWKLFKKIEKVGQNIRDGIIKAGPAVAVVGQATQIAK; ends and bridges not checked; UniProt P01507 27-63, looked up) [known antimicrobial used as control]
activity, E(3-23) and cecropins compared [3]: slightly more active than E(3-23)

KLLGKIIHHVGNFVHGFSHVF-NH2 [Clavanin E(3-23), KLL GKIIH HVGNF VHGFS HVF*]
MBC of E(3-23) in the presence of PG-1 ([4]; pH 7.4): 2.5 µg/mL
minimum bacterial concentration (MBC), agent alone ([4]; pH 7.4): 7.5 µg/mL
MBC of E(3-23) with PG-1 incorporated ([5]; pH 7.4): 2.5 µg/mL
MBC, agent alone ([5]; pH 7.4): 7.5 µg/mL

CC(C)C[C@H](NC(=O)[C@H](CCCNC(=N)N)NC(=O)CNC(=O)CNC(=O)[C@@H](N)CCCNC(=N)N)C(=O)N[C@H]1CSSC[C@@H](C(=O)N[C@H](C(=O)NCC(=O)N[C@@H](CCCNC(=N)N)C(N)=O)C(C)C)NC(=O)[C@H](C(C)C)NC(=O)[C@@H]2CSSC[C@H](NC(=O)[C@H](Cc3ccc(O)cc3)NC1=O)C(=O)N[C@@H](CCCNC(=N)N)C(=O)N[C@@H](CCCNC(=N)N)C(=O)N[C@@H](CCCNC(=N)N)C(=O)N[C@@H](Cc1ccccc1)C(=O)N2 [PG-1]
minimal bacteriocidal concentration [6, 12]: 0.20
minimal bacteriocidal concentration ([6]; low salt (10 mM phosphate)): 0.20
minimal bacteriocidal concentration [7, 12]: 0.04
minimal bacteriocidal concentration ([7]; low salt (10 mM phosphate)): 0.05
MBC for PG-1 in the presence of E(3-23) ([4]; pH 7.4): 0.07 µg/mL
minimum bacterial concentration (MBC), agent alone ([4]; pH 7.4): approximately 0.9 μg/ml
effect of E(3-23) on MBC for PG-1 ([5]; B. cepacia, pH 7.4, 200 mM NaCl, 1 μg/ml E(3-23) present): did not effect MBC
minimal bacteriocidal concentration [8, 12]: 0.10
minimal bacteriocidal concentration ([8]; low salt (10 mM phosphate)): 0.06
minimal bacteriocidal concentration [9, 12]: 0.10
minimal bacteriocidal concentration ([9]; low salt (10 mM phosphate)): 0.10

Cecropin P1
activity, E(3-23) and cecropins compared [3]: slightly more active than E(3-23)
minimal bacteriocidal concentration [10]: 6.5 µg/mL

LFKLLGKIIHHVGNFVHGFSHVF (LFKLLGKIIHHVGNFVHGFSHVF) [Clavanin E]
effect of salt on activity [11]: better maintained
effect of salt on activity ([4]; S. aureus, pH 5.5, 200 mM sodium chloride (FIG. 13B)): maintained its activity

defensin NP-2
effect of pH of the assay on activity ([1]; L. monocytogenes, radial diffusion, pH 5.5, 6.5, 7.5 (FIG. 6)): no effect

histatin 5 [Hs-5]
minimal bacteriocidal concentration [6, 12]: > 500
minimal bacteriocidal concentration ([6]; low salt (10 mM phosphate)): 2.2
minimal bacteriocidal concentration [7, 12]: 60.6
minimal bacteriocidal concentration ([7]; low salt (10 mM phosphate)): 1.1
minimal bacteriocidal concentration [8, 12]: > 500
minimal bacteriocidal concentration ([8]; low salt (10 mM phosphate)): 7.2
minimal bacteriocidal concentration [9, 12]: > 500
minimal bacteriocidal concentration ([9]; low salt (10 mM phosphate)): 11.8
